In patent publication US7074789B2, “Kinase inhibitors” (Amgen Inc., priority 1999, dated 2006):

What was measured:
Type in all cases: biochemical
AKT = target: T1, AKT (Homo sapiens, UniProt Q9Y243); test: Kinase inhibition assay (33P transfer), AKT; conditions: Table 2, kinase inhibition class; read-out: AKT3-1
T1 construct: Kinases are expressed as either kinase domains or full length constructs; made in house
Description: (§1) The inhibitor compounds described herein are screened in the following manner. Kinases suitable for use in the following protocol to determine kinase activity of the compounds described herein include, -but are not limited to: Lck, Lyn, Src, Fyn, Syk, Zap-70, Itk, Tec, Btk, EGFR, ErbB2, Kdr, Flt-1, Flt-3, Tek, c-Met, InsR, and AKT.
(§2) Kinases are expressed as either kinase domains or full length constructs fused to glutathione S-transferase (GST) or polyHistidine tagged fusion proteins in either E. colior Baculovirus-High Five expression systems. […] In some instances, kinases are co-expressed or mixed with purified or partially purified regulatory polypeptides prior to measurement of activity.
(§3) Briefly, The transfer of ^33PO4 from ATP to the synthetic substrates poly(Glu, Tyr) 4:1 or poly(Arg, Ser) 3:1 attached to the bioactive surface of microtiter plates serves as the basis to evaluate enzyme activity. After an incubation period, the amount of phosphate transferred is measured by first washing the plate with 0.5% phosphoric acid, adding liquid scintillant, and then counting in a liquid scintillation detector.

Zap-70 = target: T2, Zap-70 (Homo sapiens, UniProt P43403); test: Kinase inhibition assay (33P transfer), Zap-70; conditions: read-out: Zap-1
T2 construct: Kinases are expressed as either kinase domains or full length constructs; made in house
T2 sequence (P43403 1-619): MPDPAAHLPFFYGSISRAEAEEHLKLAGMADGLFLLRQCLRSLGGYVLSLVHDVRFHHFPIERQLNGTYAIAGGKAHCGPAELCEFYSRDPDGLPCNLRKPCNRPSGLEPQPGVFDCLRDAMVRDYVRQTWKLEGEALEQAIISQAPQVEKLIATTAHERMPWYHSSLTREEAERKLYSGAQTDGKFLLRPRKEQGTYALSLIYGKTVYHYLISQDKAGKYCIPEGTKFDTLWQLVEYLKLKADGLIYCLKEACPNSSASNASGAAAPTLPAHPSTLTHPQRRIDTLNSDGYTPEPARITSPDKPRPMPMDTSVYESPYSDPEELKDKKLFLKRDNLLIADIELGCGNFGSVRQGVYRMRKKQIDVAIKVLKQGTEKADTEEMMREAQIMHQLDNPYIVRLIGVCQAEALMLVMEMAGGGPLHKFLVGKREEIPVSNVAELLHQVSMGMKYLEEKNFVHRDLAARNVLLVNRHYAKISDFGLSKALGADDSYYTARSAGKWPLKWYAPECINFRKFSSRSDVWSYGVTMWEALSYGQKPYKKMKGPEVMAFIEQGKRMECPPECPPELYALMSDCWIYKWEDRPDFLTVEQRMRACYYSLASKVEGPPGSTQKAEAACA
Description: as §1, §2, §3

Lck = target: T3, Lck (Homo sapiens, UniProt P06239); test: Kinase inhibition assay (33P transfer), Lck; conditions: read-out: Lck-1
T3 construct: Kinases are expressed as either kinase domains or full length constructs; made in house
Description: as §1, §2, §3

c-Met = target: T4, c-Met (Homo sapiens, UniProt P08581); test: Kinase inhibition assay (33P transfer), c-Met; conditions: Table 2, kinase inhibition class; read-out: Met-1
T4 construct: Kinases are expressed as either kinase domains or full length constructs; made in house
Description: as §1
(§4) Kinases are expressed as either kinase domains or full length constructs fused to glutathione S-transferase (GST) or polyHistidine tagged fusion proteins in either E. colior Baculovirus-High Five expression systems. They are purified to near homogeneity by affinity chromatography essentially as previously described (Lehr et al., 1996; Gish et al., 1995). In some instances, kinases are co-expressed or mixed with purified or partially purified regulatory polypeptides prior to measurement of activity.
as §3, with “Kinase activity and inhibition are measured essentially by established protocols (Braunwalder et al., 1996). Briefly,” for “Briefly,”, “detector. The IC50 is determined by the concentration of compound that causes a 50% reduction in the amount of […] incorporated onto the substrate bound to the plate.” for “detector.”

Itk = target: T5, Itk (Homo sapiens, UniProt Q08881); test: Kinase inhibition assay (33P transfer), Itk; conditions: read-out: Itk-1
T5 construct: Kinases are expressed as either kinase domains or full length constructs; made in house
T5 sequence (Q08881 1-620): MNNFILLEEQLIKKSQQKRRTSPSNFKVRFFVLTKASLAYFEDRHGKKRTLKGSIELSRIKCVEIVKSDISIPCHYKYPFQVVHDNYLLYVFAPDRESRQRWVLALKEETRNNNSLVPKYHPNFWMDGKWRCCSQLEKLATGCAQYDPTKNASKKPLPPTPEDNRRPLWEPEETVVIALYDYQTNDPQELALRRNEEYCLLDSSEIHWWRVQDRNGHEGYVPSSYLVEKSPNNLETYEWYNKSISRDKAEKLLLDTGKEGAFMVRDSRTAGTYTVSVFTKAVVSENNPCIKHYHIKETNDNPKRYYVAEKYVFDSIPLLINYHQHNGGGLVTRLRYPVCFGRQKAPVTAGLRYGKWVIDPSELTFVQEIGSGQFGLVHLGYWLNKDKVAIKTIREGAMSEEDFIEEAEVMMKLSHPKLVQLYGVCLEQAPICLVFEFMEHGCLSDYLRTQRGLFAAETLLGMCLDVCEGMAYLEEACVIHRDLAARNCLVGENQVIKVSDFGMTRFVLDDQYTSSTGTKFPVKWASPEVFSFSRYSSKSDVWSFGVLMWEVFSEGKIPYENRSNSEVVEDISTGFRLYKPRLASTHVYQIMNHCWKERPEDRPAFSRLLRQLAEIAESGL
Description: as §1, §4
as §3, with “Kinase activity and inhibition are measured essentially by established protocols (Braunwalder et al., 1996). Briefly,” for “Briefly,”, “detector. The IC50 is determined by the concentration of compound that causes a 50% reduction in the amount of […] incorporated onto the substrate bound to the plate.” for “detector.”

EGFR = target: T6, EGFR (Homo sapiens, UniProt P00533); test: Kinase inhibition assay (33P transfer), EGFR; conditions: Table 2, kinase inhibition class; read-out: EGFR-1
T6 construct: Kinases are expressed as either kinase domains or full length constructs; made in house
Description: as §1, §4
as §3, with “Kinase activity and inhibition are measured essentially by established protocols (Braunwalder et al., 1996). Briefly,” for “Briefly,”, “detector. The IC50 is determined by the concentration of compound that causes a 50% reduction in the amount of […] incorporated onto the substrate bound to the plate.” for “detector.”

Kdr = target: T7, Kdr (Homo sapiens, UniProt P35968); test: Kinase inhibition assay (33P transfer), Kdr; conditions: read-out: KDR-1
T7 construct: Kinases are expressed as either kinase domains or full length constructs; made in house
Description: as §1, §2, §3

T7 sequence (P35968 20-1356, species assumed): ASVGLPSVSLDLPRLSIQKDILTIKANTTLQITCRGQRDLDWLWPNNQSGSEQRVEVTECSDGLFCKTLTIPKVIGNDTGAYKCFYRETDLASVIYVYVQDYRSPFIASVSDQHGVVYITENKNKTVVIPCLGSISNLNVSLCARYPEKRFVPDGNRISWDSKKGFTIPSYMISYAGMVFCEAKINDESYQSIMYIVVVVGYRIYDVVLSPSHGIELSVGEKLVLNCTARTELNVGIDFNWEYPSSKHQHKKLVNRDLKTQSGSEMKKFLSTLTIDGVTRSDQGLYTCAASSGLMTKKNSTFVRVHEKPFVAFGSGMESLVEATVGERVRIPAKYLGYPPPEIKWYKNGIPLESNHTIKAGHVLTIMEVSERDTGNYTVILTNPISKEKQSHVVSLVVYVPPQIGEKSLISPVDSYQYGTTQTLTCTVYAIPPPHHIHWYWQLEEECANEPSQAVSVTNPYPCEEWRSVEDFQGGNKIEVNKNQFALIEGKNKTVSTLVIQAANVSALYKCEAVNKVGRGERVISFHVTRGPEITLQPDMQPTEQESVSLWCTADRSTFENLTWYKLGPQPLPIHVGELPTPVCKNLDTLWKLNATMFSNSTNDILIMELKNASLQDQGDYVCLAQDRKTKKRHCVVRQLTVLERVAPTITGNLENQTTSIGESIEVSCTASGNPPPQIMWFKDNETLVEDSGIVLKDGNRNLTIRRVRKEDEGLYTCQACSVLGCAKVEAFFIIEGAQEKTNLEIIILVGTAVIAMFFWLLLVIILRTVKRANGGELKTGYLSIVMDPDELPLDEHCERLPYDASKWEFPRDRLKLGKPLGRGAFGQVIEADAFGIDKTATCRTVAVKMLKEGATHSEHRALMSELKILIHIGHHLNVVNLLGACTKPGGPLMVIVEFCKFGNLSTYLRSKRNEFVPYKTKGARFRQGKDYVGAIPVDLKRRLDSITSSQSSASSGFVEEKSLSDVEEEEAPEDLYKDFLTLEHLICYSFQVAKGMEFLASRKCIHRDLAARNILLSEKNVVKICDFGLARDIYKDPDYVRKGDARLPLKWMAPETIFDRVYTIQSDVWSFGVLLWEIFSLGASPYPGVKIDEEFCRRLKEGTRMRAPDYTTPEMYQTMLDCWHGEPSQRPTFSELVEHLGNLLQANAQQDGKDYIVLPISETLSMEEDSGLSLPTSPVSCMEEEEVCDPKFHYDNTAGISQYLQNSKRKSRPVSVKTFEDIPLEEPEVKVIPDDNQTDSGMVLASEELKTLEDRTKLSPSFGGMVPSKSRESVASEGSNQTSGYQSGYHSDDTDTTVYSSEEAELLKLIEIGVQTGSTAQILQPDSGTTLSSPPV
T4 sequence (P08581 25-1390): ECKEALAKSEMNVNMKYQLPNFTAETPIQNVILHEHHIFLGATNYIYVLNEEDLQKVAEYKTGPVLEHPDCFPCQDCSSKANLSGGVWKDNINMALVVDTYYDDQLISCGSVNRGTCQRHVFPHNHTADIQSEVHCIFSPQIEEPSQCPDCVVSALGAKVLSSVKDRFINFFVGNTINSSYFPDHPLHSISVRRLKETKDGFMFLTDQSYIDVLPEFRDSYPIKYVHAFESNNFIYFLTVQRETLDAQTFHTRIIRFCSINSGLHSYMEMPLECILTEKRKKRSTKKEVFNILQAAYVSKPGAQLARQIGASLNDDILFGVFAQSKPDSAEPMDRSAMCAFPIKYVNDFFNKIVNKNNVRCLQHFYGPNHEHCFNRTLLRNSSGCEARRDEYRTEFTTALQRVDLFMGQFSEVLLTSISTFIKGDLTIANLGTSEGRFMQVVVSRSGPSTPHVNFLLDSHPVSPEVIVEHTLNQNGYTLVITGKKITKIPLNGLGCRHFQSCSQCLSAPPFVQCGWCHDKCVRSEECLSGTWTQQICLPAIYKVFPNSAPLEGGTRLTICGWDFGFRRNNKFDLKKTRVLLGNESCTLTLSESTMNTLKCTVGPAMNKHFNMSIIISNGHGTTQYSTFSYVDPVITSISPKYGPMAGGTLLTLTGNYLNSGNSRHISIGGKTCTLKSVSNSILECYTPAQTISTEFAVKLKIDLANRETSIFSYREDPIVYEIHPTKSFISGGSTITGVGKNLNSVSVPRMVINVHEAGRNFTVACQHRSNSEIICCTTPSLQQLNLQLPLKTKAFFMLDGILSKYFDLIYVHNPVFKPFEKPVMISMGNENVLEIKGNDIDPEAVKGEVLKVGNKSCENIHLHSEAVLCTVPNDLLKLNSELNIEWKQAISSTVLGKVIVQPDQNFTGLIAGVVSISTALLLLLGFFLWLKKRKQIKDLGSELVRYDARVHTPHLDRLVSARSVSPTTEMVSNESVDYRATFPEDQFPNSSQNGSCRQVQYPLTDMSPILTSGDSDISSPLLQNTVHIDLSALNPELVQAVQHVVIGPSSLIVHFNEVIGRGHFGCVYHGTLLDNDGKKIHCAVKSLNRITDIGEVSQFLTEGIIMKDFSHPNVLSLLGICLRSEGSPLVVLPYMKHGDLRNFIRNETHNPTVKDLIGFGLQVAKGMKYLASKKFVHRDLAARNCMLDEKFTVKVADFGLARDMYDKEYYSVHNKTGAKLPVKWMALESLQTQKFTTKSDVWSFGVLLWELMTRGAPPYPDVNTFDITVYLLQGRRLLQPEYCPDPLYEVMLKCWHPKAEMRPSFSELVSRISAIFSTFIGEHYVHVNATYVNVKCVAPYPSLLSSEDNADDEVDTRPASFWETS
T3 sequence (P06239 whole entry, species assumed, the tested form may be a part): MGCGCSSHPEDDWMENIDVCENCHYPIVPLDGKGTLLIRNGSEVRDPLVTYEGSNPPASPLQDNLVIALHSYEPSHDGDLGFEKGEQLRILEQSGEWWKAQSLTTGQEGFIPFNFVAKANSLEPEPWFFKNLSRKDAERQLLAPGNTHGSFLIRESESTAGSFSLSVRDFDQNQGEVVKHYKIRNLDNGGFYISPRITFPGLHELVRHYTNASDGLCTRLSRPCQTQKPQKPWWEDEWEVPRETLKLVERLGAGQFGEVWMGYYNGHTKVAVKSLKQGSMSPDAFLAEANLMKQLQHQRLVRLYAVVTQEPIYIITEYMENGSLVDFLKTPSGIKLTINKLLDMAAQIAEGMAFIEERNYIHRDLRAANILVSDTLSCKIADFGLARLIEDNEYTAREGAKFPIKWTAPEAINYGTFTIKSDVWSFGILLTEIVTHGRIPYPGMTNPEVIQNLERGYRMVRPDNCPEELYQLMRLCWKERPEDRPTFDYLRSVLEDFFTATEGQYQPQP
T1 sequence (Q9Y243 whole entry, the tested form may be a part): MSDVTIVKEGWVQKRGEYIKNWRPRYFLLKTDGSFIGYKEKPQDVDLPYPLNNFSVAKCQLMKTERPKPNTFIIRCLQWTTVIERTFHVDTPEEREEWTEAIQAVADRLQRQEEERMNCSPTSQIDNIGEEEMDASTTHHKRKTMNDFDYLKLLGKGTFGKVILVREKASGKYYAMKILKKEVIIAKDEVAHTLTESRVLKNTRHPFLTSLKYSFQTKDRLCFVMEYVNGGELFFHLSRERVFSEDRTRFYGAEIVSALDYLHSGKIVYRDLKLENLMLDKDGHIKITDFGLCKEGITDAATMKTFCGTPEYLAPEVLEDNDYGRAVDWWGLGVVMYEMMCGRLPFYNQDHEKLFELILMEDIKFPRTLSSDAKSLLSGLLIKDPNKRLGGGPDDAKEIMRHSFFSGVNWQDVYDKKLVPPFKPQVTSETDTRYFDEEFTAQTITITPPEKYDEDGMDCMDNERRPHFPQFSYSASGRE
T6 sequence (P00533 25-1210, species assumed): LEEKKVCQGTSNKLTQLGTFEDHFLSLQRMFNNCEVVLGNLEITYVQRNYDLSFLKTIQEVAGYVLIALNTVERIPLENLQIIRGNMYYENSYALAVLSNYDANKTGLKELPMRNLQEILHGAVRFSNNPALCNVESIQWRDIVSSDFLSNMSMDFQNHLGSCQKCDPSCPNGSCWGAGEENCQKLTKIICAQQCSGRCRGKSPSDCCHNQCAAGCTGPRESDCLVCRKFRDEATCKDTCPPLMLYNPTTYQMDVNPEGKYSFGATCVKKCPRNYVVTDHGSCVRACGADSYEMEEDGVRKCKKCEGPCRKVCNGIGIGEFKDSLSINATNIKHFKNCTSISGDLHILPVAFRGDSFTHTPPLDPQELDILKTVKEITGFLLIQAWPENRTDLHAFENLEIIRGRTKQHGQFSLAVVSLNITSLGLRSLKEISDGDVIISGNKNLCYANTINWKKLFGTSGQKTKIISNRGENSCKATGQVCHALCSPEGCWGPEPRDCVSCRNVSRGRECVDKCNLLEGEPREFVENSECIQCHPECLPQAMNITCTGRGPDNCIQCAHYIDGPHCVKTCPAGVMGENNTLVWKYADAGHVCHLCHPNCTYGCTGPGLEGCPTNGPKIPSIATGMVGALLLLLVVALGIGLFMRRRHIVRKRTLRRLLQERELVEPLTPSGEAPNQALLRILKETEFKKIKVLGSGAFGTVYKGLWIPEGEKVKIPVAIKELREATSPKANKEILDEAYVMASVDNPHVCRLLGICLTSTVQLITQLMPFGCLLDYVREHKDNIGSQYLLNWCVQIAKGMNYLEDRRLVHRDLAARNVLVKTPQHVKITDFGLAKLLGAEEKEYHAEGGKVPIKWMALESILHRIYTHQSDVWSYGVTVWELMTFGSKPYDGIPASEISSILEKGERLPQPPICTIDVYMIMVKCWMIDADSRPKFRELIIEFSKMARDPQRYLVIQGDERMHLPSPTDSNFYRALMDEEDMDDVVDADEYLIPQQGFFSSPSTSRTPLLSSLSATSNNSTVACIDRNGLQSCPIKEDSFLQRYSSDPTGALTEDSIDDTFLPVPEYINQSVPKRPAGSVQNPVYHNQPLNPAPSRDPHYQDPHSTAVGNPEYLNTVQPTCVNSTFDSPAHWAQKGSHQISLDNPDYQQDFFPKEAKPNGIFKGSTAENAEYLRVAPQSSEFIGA

Row | SMILES | IC50 (AKT) | IC50 (Zap-70) | IC50 (Lck) | IC50 (c-Met) | IC50 (Itk) | IC50 (EGFR) | IC50 (Kdr)
1 | COc1cc(Nc2ncnc(-c3ccc(NCc4ccccc4)nc3)n2)cc(OC)c1OC [Compound 471] | > 10.1 µM | > 10.1 µM | > 10.1 µM | > 10.1 µM | > 10.1 µM | > 10.1 µM | > 10.1 µM
2 | COc1cc(Nc2ncnc(-c3ccc(NCCCN)nc3)n2)cc(OC)c1OC [Compound 472] | > 10.9 µM | > 10.9 µM | > 10.9 µM | > 10.9 µM | > 10.9 µM | > 10.9 µM | 0.972 to 5.83 µM
3 | CC(=O)Nc1ccc(Nc2ncnc(-n3c(N)nc4ccccc43)n2)cc1 [Compound 475] | > 12.5 µM | > 12.5 µM | 1.11 to 6.66 µM | 6.66 to 9.71 µM | 1.11 to 6.66 µM | > 12.5 µM | < 1.11 µM
4 | COc1cc(Nc2ncnc(-n3c(N)nc4ccccc43)n2)cc(OC)c1 [Compound 477] | > 12.4 µM | > 12.4 µM | 1.1 to 6.6 µM | > 12.4 µM | 1.1 to 6.6 µM | > 12.4 µM | < 1.1 µM
5 | CCOC(=O)C(Cc1cccc(Nc2ncnc(Nc3cc(-c4ccco4)n[nH]3)n2)c1)(NC(C)=O)C(=O)OCC [Compound 481] | > 8.2 µM | > 8.2 µM | > 8.2 µM | > 8.2 µM | 6.38 to 8.2 µM | > 8.2 µM | 0.729 to 4.38 µM
6 | O=c1[nH]c2ccccc2n1-c1ncnc(Nc2ccccc2)n1 [Compound 482] | > 14.8 µM | > 14.8 µM | > 14.8 µM | > 14.8 µM | > 14.8 µM | > 14.8 µM | < 1.31 µM
7 | O=c1[nH]c2ccccc2n1-c1ncnc(Nc2ccccc2Cl)n1 [Compound 484] | > 13.3 µM | > 13.3 µM | > 13.3 µM | 7.08 to 10.3 µM | > 13.3 µM | 1.18 to 7.08 µM | > 13.3 µM
8 | N#Cc1ccc(Nc2ncnc(-n3c(=O)[nH]c4ccccc43)n2)cc1 [Compound 485] | > 13.7 µM | > 13.7 µM | > 13.7 µM | > 13.7 µM | > 13.7 µM | > 13.7 µM | 1.21 to 7.29 µM
9 | N#Cc1cccc(Nc2ncnc(-n3c(=O)[nH]c4ccccc43)n2)c1 [Compound 486] | > 13.7 µM | > 13.7 µM | 1.21 to 7.29 µM | > 13.7 µM | > 13.7 µM | > 13.7 µM | 1.21 to 7.29 µM
10 | O=c1[nH]c2ccccc2n1-c1ncnc(Nc2ccccn2)n1 [Compound 487] | > 14.7 µM | > 14.7 µM | > 14.7 µM | > 14.7 µM | > 14.7 µM | > 14.7 µM | > 14.7 µM
11 | O=c1[nH]c2ccccc2n1-c1ncnc(Nc2ccncc2)n1 [Compound 488] | > 14.7 µM | > 14.7 µM | > 14.7 µM | > 14.7 µM | > 14.7 µM | > 14.7 µM | 1.31 to 7.86 µM
12 | COc1ccc(Nc2ncnc(-n3c(=O)[nH]c4ccccc43)n2)cn1 [Compound 489] | > 13.4 µM | > 13.4 µM | > 13.4 µM | > 13.4 µM | > 13.4 µM | > 13.4 µM | > 13.4 µM
13 | O=c1[nH]c2ccccc2n1-c1ncnc(Nc2ncccn2)n1 [Compound 490] | > 14.7 µM | > 14.7 µM | > 14.7 µM | > 14.7 µM | > 14.7 µM | > 14.7 µM | > 14.7 µM
14 | CC(C)(C)c1cc(Nc2ncnc(Nc3cccc(CO)c3)n2)[nH]n1 [Compound 499] | > 13.3 µM | > 13.3 µM | 1.18 to 7.07 µM | 1.18 to 7.07 µM | 1.18 to 7.07 µM | 1.18 to 7.07 µM | 1.18 to 7.07 µM
15 | CC(C)(C)c1cc(Nc2ncnc(Nc3cccc(C(N)=O)c3)n2)[nH]n1 [Compound 500] | > 12.8 µM | > 12.8 µM | 1.14 to 6.81 µM | 1.14 to 6.81 µM | 1.14 to 6.81 µM | 1.14 to 6.81 µM | 1.14 to 6.81 µM
16 | CC(C)(C)c1cc(Nc2ncnc(Nc3ccc(CO)cc3)n2)[nH]n1 [Compound 501] | > 13.3 µM | > 13.3 µM | 1.18 to 7.07 µM | < 1.18 µM | 1.18 to 7.07 µM | 1.18 to 7.07 µM | 1.18 to 7.07 µM
17 | CC(C)(C)c1cc(Nc2ncnc(Nc3ccc(C(N)=O)cc3)n2)[nH]n1 [Compound 502] | 1.14 to 6.81 µM | > 12.8 µM | 1.14 to 6.81 µM | 1.14 to 6.81 µM | 1.14 to 6.81 µM | 1.14 to 6.81 µM | 1.14 to 6.81 µM
18 | O=c1[nH]c2ccccc2n1-c1ncnc(Nc2cc(Cl)cc(Cl)c2)n1 [Compound 503] | > 12.1 µM | 9.38 to 12.1 µM | 9.38 to 12.1 µM | > 12.1 µM | > 12.1 µM | > 12.1 µM | > 12.1 µM
19 | CN(C)c1ccc(Nc2ncnc(-n3c(N)nc4ccccc43)n2)cc1 [Compound 527] | > 13 µM | > 13 µM | 1.15 to 6.93 µM | 1.15 to 6.93 µM | 1.15 to 6.93 µM | 6.93 to 10.1 µM | < 1.15 µM
20 | O=c1[nH]c2ccccc2n1-c1ncnc(Nc2cccc(S(=O)(=O)CCO)c2)n1 [Compound 681] | > 10.9 µM | > 10.9 µM | > 10.9 µM | > 10.9 µM | > 10.9 µM | > 10.9 µM | 0.97 to 5.82 µM
21 | O=c1[nH]c2ccccc2n1-c1ncnc(Nc2ccc(O)cc2)n1 [Compound 682] | > 14 µM | > 14 µM | 7.49 to 10.9 µM | 7.49 to 10.9 µM | 10.9 to 14 µM | 1.25 to 7.49 µM | 1.25 to 7.49 µM
22 | O=c1[nH]c2ccccc2n1-c1ncnc(Nc2cccc3ccccc23)n1 [Compound 683] | > 12.7 µM | > 12.7 µM | > 12.7 µM | > 12.7 µM | > 12.7 µM | > 12.7 µM | > 12.7 µM
23 | O=c1[nH]c2ccccc2n1-c1ncnc(Nc2ccc3ccccc3c2)n1 [Compound 684] | > 12.7 µM | > 12.7 µM | > 12.7 µM | > 12.7 µM | > 12.7 µM | > 12.7 µM | 6.77 to 9.88 µM
